Test results reported in paper PMC11587516 (ACS Chemical Neuroscience, 2024).
pIC50: −log10 of the molar value.

Key:
hBGT1 Q299L = target: T1, hBGT1 Q299L (Homo sapiens, UniProt P48065, Q299L); assay: [3H]GABA uptake assay, hBGT1 mutant Q299L in tsA201 cells; format: cell-based
T1 construct: HA; expressed in transfected cells; host or cells: tsA201 cells (transformed HEK293), transient expression
T1 sequence (P48065 1-614 Q299L): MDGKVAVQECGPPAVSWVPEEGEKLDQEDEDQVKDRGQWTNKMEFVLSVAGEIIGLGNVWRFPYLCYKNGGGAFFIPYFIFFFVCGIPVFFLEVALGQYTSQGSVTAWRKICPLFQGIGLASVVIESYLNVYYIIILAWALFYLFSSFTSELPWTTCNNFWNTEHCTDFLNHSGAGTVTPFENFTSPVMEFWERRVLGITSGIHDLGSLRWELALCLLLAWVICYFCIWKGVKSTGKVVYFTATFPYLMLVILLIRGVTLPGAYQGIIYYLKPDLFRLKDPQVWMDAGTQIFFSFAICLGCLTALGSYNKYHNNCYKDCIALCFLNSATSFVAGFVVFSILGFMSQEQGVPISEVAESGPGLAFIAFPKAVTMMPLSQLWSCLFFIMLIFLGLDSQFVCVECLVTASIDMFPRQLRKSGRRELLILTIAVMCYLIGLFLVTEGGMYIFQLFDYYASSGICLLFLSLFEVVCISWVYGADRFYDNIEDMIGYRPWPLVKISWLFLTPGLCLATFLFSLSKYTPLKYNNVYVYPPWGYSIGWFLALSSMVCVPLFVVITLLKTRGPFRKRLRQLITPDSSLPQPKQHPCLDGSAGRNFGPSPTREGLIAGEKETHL
Method: To validate the molecular modeling, particularly the crucial interactions with the Glu52 and Gln299 residues, the activity of compound 9 was tested on the following hBGT1 mutants: E52A, E52Y, Q299L, and the double mutant E52A+Q299L (Figure 5 and Table 1).[14]
The CHO cells were placed in 96-well plates (approximately 50,000 cells/well) for about 24 h before the experiment. […] After incubation, cells were washed 3 times with 100 μL/well ice-cold assay buffer, 150 μL/well MicroScint20 (PerkinElmer) was subsequently added before the plate was shaken for at least 1 h. The radioactivity of each well of the plate was measured on a TopCount NXT scintillation counter. […] Data presented are the pooled data of at least three independent experiments with three technical replicates if not stated otherwise in figure legends. Concentration–response curves were fitted by nonlinear regression to the sigmoidal concentration–response model with GraphPad Prism v 9.0.
The tsA201 cell line (a transformed HEK293 cell line) has been described previously and was cultured accordingly.[20] The tsA201 cells used for transient expression of hBGT1 mutants were transfected with DNA constructs (8 μg per 10 cm plate) using 40 μL of PolyFect transfection reagent according to the manufacturer’s protocol (Qiagen). […]

[1] = tested on: SH-SY5Y neuroblastoma cells; assay: SH-SY5Y viability, MTS assay, 72 h; format: cell-based, human; conditions: 0.1-100 µM
Source text: OC(=O)[C@H]1CNCC[C@@H]1S OC(=O)CCCCCCN1C=CN=C1
OC(=O)C1CCNCC1 N[C@]12C[C@H]1[C@@H](CC2)C(O)=O
OC(=O)C1=CCNCC1 N[C@H]1C[C@@H]1CC(O)=O
O[C@@H]1CNCC[C@H]1C(O)=O N[C@@H]1C[C@@H]1CC(O)=O
OC(=O)CCCC1=NC=CN1 N[C@H]1C[C@H]1CC(O)=O
OC(=O)\C=C\C1=NC=CN1 NC[C@H]1C[C@H]1C(O)=O
OC(=O)\C=C\C1=CNC=N1 NC[C@@H]1C[C@@H]1C(O)=O
OC(=O)\C=C\C1=CN=CN1 NC[C@@H]1C[C@H]1C(O)=O
OC(=O)CCC1=CNC=N1 NC[C@H]1C[C@@H]1C(O)=O
OC(=O)CCC1=CN=CN1 NC1=CC=C(C=N1)C(O)=O
OC(=O)CCN1C=CN=C1 NC1=NC=C(C=N1)C(O)=O
OC(=O)CCCC1=NC=CN1 NC(=N)N1CCC(CC1)C(O)=O
S2. IC50 determination at GAT3 stable GAT3-CHO, compound 9
Figure S1. IC 50 determination for compound 9. Data represent one of three independent experiments, each performed in three technical replicates.
S3. […]
The influence of compound 9 on viability of SH-SY5Y neuroblastoma cells was determined using Aqueous Non-Radioactive Cell Proliferation Assay. […] Upon adding MTS and following 2h incubation, cell viability was calculated and […]
The effect of compound 9 on viability and proliferation of SH-SY5Y was determined with CellTiter 96® Aqueous Non-Radioactive Cell Proliferation Assay (MTS, Promega, Madison, WI, USA). […] Next MTS was added in fresh medium and after 2h of incubation the absorbance was measured at 490 nm using a microplate reader EnSpire (PerkinElmer, Waltham, MA USA). All results were shown as mean ± SD calculated from two independent experiments. […]

## NC12CC(C(=O)O)(C1)C2 [Compound 9]
hBGT1 Q299L
  pIC50: 4.13
hBGT1 Q299L; Q299L vs wt
  decrease in activity compared with wild type hBGT1: more than 2 fold
[1]
  impact on SH-SY5Y viability: no impact
